One test deals with A. flavus ATCC 204304. Nature of the test: Broth microdilution antifungal susceptibility, NCCLS M38-A. The format is cell-based, Aspergillus flavus. The settings on record: minimal concentration inhibiting >95% growth; average of at least two assays (except I-l and I-x). Background: In broth dilution the organism is exposed to a series of concentrations in liquid medium.
In another test the test system is A. fumigatus ATCC 204305. Described as above. The class given is cell-based, Aspergillus fumigatus. The conditions noted are these: minimal concentration inhibiting >95% growth; average of at least two assays (except I-l and I-x).

For the compound `CC[C@H]1O[C@@H](/C(C)=C/[C@H](C)/C=C/[C@H]2[C@@H](C)[C@@H]2/C=C/[C@@H]2O[C@H](CC(=O)N(C)OC)C[C@H](N(C)C)[C@H]2O)CC=C1C` [I-tt, (5S,6R)-5-dimethylamino-6-hydroxy-N-methoxy-N-methylpolyangiamide], the “MIC0 A. flavus ATCC 204304” value against A. flavus ATCC 204304 turned out to be 4 µg/mL. The “MIC0 A. fumigatus ATCC 204305” value against A. fumigatus ATCC 204305 came to 8 µg/mL.

On to `CC[C@H]1O[C@@H](/C(C)=C/[C@H](C)/C=C/[C@H]2[C@@H](C)[C@@H]2/C=C/[C@@H]2O[C@H](CC(=O)O)C[C@H](N(C)Cc3nccs3)[C@H]2O)CC=C1C` [I-x, (5S,6R)-5-(N-(2-thiazolyl)methyl-methylamino)-6-hydroxypolyangioic acid], for which the “MIC0 A. flavus ATCC 204304” value with A. flavus ATCC 204304 worked out at 4 µg/mL. Further, the “MIC0 A. fumigatus ATCC 204305” value against A. fumigatus ATCC 204305 amounted to 2 µg/mL.

For the compound `CC[C@H]1O[C@@H](/C(C)=C/[C@H](C)/C=C/[C@H]2[C@@H](C)[C@@H]2/C=C/[C@@H]2O[C@H](CC=NO)C[C@H](NC)[C@H]2O)CC=C1C` [I-zz, (5S,6R)-5-methylamino-6-hydroxypolyangial oxime], in the test with A. flavus ATCC 204304, the “MIC0 A. flavus ATCC 204304” value came to 8 µg/mL. Further, the “MIC0 A. fumigatus ATCC 204305” value in the test on A. fumigatus ATCC 204305 worked out at 12 µg/mL.

With `CC[C@H]1O[C@@H](/C(C)=C/C/C=C/[C@H]2[C@@H](C)[C@@H]2/C=C/[C@@H]2O[C@H](CC(=O)O)C[C@H](N(C)C)[C@H]2O)CC=C1C` [II-a, (5S,6R)-5-dimethylamino-6-hydroxy-15-desmethylpolyangioic acid], the “MIC0 A. flavus ATCC 204304” value against A. flavus ATCC 204304 was 0.92 µg/mL. For the same compound, the “MIC0 A. fumigatus ATCC 204305” value against A. fumigatus ATCC 204305 is 0.6 µg/mL.

For `CC[C@H]1O[C@@H](/C(C)=C/C/C=C/[C@H]2[C@@H](C)[C@@H]2/C=C/[C@@H]2O[C@H](CCO)C[C@H](N(C)C)[C@H]2O)CC=C1C` [II-b, (5S,6R)-5-dimethylamino-15-desmethylpolyangi-1,6-diol], the “MIC0 A. flavus ATCC 204304” value with A. flavus ATCC 204304 came to 8 µg/mL. Also, the “MIC0 A. fumigatus ATCC 204305” value with A. fumigatus ATCC 204305 stood at 8 µg/mL.

In the case of `CC1=CC[C@H](/C(C)=C/[C@H](C)/C=C/[C@H]2[C@@H](C)[C@@H]2/C=C/[C@@H]2O[C@H](CC(=O)O)C[C@H](N(C)C)[C@H]2O)O[C@@H]1C` [III-a, 24-norambruticin VS-3], the “MIC0 A. flavus ATCC 204304” value against A. flavus ATCC 204304 was found to be 1.6 µg/mL. Also, the “MIC0 A. fumigatus ATCC 204305” value with A. fumigatus ATCC 204305 stood at 0.71 µg/mL.

Consider `CC[C@H]1O[C@@H](/C(C)=C/[C@H](C)/C=C/[C@H]2[C@@H](C)[C@@H]2/C=C/[C@@H]2O[C@H](CCO)C[C@H](N(C)C)[C@H]2O)CCC1C` (stereo partly drawn) [IV-c], for which the “MIC0 A. flavus ATCC 204304” value against A. flavus ATCC 204304 worked out at 2 µg/mL. In the test on A. fumigatus ATCC 204305, the “MIC0 A. fumigatus ATCC 204305” value turned out to be 2 µg/mL.

As to `CC[C@H]1O[C@@H](/C(C)=C/[C@H](C)/C=C/[C@H]2[C@@H](C)[C@@H]2/C=C/[C@@H]2O[C@H](CC(=O)O)C[C@H](NC(C)C)[C@H]2O)CCC1C` (stereo partly drawn) [IV-d], the “MIC0 A. flavus ATCC 204304” value in the test with A. flavus ATCC 204304 was 0.88 µg/mL. The “MIC0 A. fumigatus ATCC 204305” value in the test on A. fumigatus ATCC 204305 stood at 2.5 µg/mL.

On to “(5S,6R,16R,17R)-5-amino-6-hydroxy-16,17-epxoy-16,17-dihydropolyangioic acid [V-c]”, for which the “MIC0 A. flavus ATCC 204304” value in the test with A. flavus ATCC 204304 was determined as 16 µg/mL. Moreover, in the test on A. fumigatus ATCC 204305, the “MIC0 A. fumigatus ATCC 204305” value is 8 µg/mL.

As for “(5S,6R,16S,17S)-5-amino-6-hydroxy-16,17-epxoy-16,17-dihydropolyangioic acid [V-d]”, the “MIC0 A. flavus ATCC 204304” value against A. flavus ATCC 204304 is greater than 32 µg/mL. For the same compound, the “MIC0 A. fumigatus ATCC 204305” value in the test with A. fumigatus ATCC 204305 is greater than 32 µg/mL.

Consider “methyl (5S,6R,16R,17R)-5-tert-butoxycarbonylamino-6-hydroxy-16,17-epxoy-16,17-dihydropolyangiate [V-a]”, for which the “MIC0 A. flavus ATCC 204304” value in the test with A. flavus ATCC 204304 is greater than 32 µg/mL. In addition, the “MIC0 A. fumigatus ATCC 204305” value in the test with A. fumigatus ATCC 204305 is greater than 32 µg/mL.

Take “methyl (5S,6R,16S,17S)-5-tert-butoxycarbonylamino-6-hydroxy-16,17-epxoy-16,17-dihydropolyangiate [V-b]”: the “MIC0 A. flavus ATCC 204304” value against A. flavus ATCC 204304 was greater than 32 µg/mL. Besides, in the test on A. fumigatus ATCC 204305, the “MIC0 A. fumigatus ATCC 204305” value is greater than 32 µg/mL.

For the origin of these results see patent US20070015823A1, “Ambruticin VS compounds” (priority 2004, published 2007).
